Measured values as given in patent US20250059172A1, “INDAZOLE COMPOUND AND PHARMACEUTICAL” (NIPPON SHINYAKU CO., LTD., priority 2021, published 2025).
Counter-ions that a name gives are not always drawn.

How the values were obtained:
human A549 cells = experiment: Inhibition test of PGE2 production using human A549 cells; assay type: cell-based; conditions: IL-1β stimulated A549 cells, 24 h, PGE2 by HTRF, read-out: A549 cell inhibition of PGE2 production IC50
In short: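 PGE2 (HTRF) and PGF2a (EIA) were quantified in medium after 24 h, 37°C IL-1β stimulation (5 ng/well) of human A549 cells that had received test compound 60 min beforehand (0.1% DMSO, 3% FBS RPMI). IC50 relative to the window between IL-1β-stimulated and unstimulated controls.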

human mPGES-1 = human mPGES-1 (Homo sapiens (Human), UniProt O14684); experiment: mPGES-1 inhibitory activity test; assay type: biochemical; conditions: for IC50: microsomes of CHO-K1 cells expressing human mPGES-1, PGH2 1 μM, PGE2 by HTRF, read-out: mPGES-1 inhibition (IC50 nM); for inhibition at 0.01 µM: 10 nM test compound; for inhibition at 0.1 µM: 100 nM test compound
Chain of human mPGES-1 (O14684 whole entry): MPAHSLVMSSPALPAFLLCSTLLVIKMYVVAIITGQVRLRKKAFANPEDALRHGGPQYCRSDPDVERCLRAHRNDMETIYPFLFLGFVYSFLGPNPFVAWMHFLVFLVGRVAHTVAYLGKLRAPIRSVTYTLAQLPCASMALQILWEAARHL
In short: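 PGE2 formation was quantified by HTRF and reported as percent inhibition at 10 and 100 nM compound or as IC50. The 60-second reaction at 4° C used 1 μM PGH2, after a 20-minute 4° C preincubation of compound (1% DMSO final) with glutathione-supplemented (2.5 mM, pH 7.4) microsomes. The microsomes were from transiently transfected CHO-K1 cells expressing human mPGES-1.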

Structure (SMILES) | IC50 (human A549 cells) | IC50 (human mPGES-1) | inhibition at 0.01 µM (human mPGES-1) | inhibition at 0.1 µM (human mPGES-1)
N#CC1(C(=O)NCc2ccc(Cl)c(C(=O)Nc3cccc4c3cnn4-c3ccc(C(F)(F)F)cc3)c2)CC1 [Example 25, 2-Chloro-5-({[(1-cyanocyclopropyl)carbonyl]amino}methyl)-N-{1-[4-(trifluoromethyl)phenyl]-1H-indazol-4-yl}benzamide] | 8.6 nM | 3.9 nM |  | 
CC(C)(C)C(=O)NCc1ccc(Cl)c(C(=O)Nc2cccc3c2cnn3-c2cccc(OC(F)F)c2)c1 [Example 81, 2-Chloro-N-{1-[3-(difluoromethoxy)phenyl]-1H-indazol-4-yl}-5-{[(2,2-dimethylpropanoyl)amino]methyl}benzamide] | 0.3 nM | 14.9 nM |  | 
CC(C)(C)C(=O)NCc1ccc(Cl)c(C(=O)Nc2cccc3c2cnn3Cc2cccc(C(F)(F)F)c2)c1 [Example 94, 2-Chloro-5-{[(2,2-dimethylpropanoyl)amino]methyl}-N-{1-[3-(trifluoromethyl)benzyl]-1H-indazol-4-yl}benzamide] | 9.2 nM | 10 nM |  | 
Cn1ncc2c(NC(=O)c3cc(CNC(=O)C4CCCC4)ccc3Cl)cccc21 [Example 204, 2-Chloro-5-{[(cyclopentylcarbonyl)amino]methyl}-N-(1-methyl-1H-indazol-4-yl)benzamide] | 43.6 nM |  | 57% | 85%
CC(C)(C)C(=O)NCc1ccc(Cl)c(C(=O)Nc2cccc3c2cnn3CC2CCCCO2)c1 (centres unmarked) [Example 105, 2-Chloro-5-{[(2,2-dimethylpropanoyl)amino]methyl}-N-[1-(tetrahydro-2H-pyran-2-ylmethyl)-1H-indazol-4-yl]benzamide] | 11.1 nM | 1.3 nM |  | 
Cc1ccc(-n2ncc3c(NC(=O)c4cc(CNC(=O)C5CC5)ccc4Cl)cccc32)cn1 [Example 10, 2-Chloro-5-{[(cvclopropylcarbonyl)amino]methyl}-N-[1-(6-methylpyridin-3-yl)-1H-indazol-4-yl]benzamide hydrochloride] | 31.2 nM | 10 nM |  | 
CC(C)n1ncc2c(NC(=O)c3cc(CNC(=O)C(C)(C)C)ccc3C(F)(F)F)cccc21 [Example 202, 5-{[(2,2-Dimethylpropanoyl)amino]methyl}-N-[1-(propan-2-yl)-1H-indazol-4-yl]-2-(trifluoromethyl)benzamide] | 20.2 nM |  | 59% | 79%
Cc1ccc(-n2ncc3c(NC(=O)c4cc(CNC(=O)C(C)(C)C)ccc4C(F)(F)F)cccc32)cc1Cl [Example 200, N-[1-(3-chloro-4-methylphenyl)-1H-indazol-4-yl]-5-{[(2,2-dimethylpropanoyl)amino]methyl}-2-(trifluoromethyl)benzamide] | 0.9 nM |  | 69% | 103%
CC(C)(C)OC(=O)N1CCC(C(=O)NCc2ccc(Cl)c(C(=O)Nc3cccc4c3cnn4-c3ccc(C(F)(F)F)cc3)c2)CC1 [Example 36, tert-Butyl 4-{[4-chloro-3-({1-[4-(trifluoromethyl)phenyl]-1H-indazol-4-yl}carbamoyl)benzyl]carbamoyl}piperidine-1-carboxylate] | 1.7 nM | 1.4 nM |  | 
COCC(=O)NCc1ccc(Cl)c(C(=O)Nc2cccc3c2cnn3-c2ccc(C)c(C(F)(F)F)c2)c1 [Example 258, 2-Chloro-5-{[(methoxyacetyl)amino]methyl}-N-{l-[4-methyl-3-(trifluoromethyl)phenyl]-1H-indazol-4-yl}benzamide] | 3.2 nM |  | 84% | 100%
CC(C)(C)C(=O)NCc1ccc(C(F)(F)F)c(C(=O)Nc2cccc3c2cnn3-c2ccc(OC(F)(F)F)cc2)c1 [Example 194, 5-{[(2,2-Dimethylpropanoyl)amino]methyl}-N-{1-[4-(trifluoromethoxy)phenyl]-1H-indazol-4-yl}-2-(trifluoromethyl)benzamide] | 0.7 nM |  | 62% | 83%
CC(=O)NCc1ccc(Cl)c(C(=O)Nc2cccc3c2cnn3-c2ccc(C(F)(F)F)cc2)c1 [Example 18, 5-[(Acetylamino)methyl]-2-chloro-N-{1-[4-(trifluoromethyl)phenyl]-1H-indazol-4-yl}benzamide] | 52.4 nM | 84.7 nM |  | 
COc1cncc(-n2ncc3c(NC(=O)c4cc(CNC(=O)C(C)(C)C)ccc4Cl)cccc32)c1 [Example 61, 2-Chloro-5-{[(2,2-dimethylpropanoyl)amino]methyl}-N-[1-(5-methoxypyridin-3-yl)-1H-indazol-4-yl]benzamide hydrochloride] | 2.9 nM | 3.5 nM |  | 
Cc1ccc(-n2ncc3c(NC(=O)c4cc(CNC(=O)C(F)(F)F)ccc4Cl)cccc32)cn1 [Example 87, 2-Chloro-N-[1-(6-methylpyridin-3-yl)-1H-indazol-4-yl]-5-{[(trifluoroacetyl)amino]methyl}benzamide hydrochloride] | 72 nM | 4.7 nM |  | 
O=C(CC1CCCC1)NCc1ccc(Cl)c(C(=O)Nc2cccc3c2cnn3-c2ccc(C(F)(F)F)cc2)c1 [Example 46, 2-Chloro-5-{[(cyclopentylacetyl)amino]methyl}-N-{1-[4-(trifluoromethyl)phenyl]-1H-indazol-4-yl}benzamide] | 14.3 nM | 3 nM |  | 
CCOc1ccc(-n2ncc3c(NC(=O)c4cc(CNC(=O)C(C)(C)C)ccc4Cl)cccc32)cc1 [Example 65, 2-Chloro-5-{[(2,2-dimethylpropanoyl)amino]methyl}-N-[1-(4-ethoxyphenyl)-1H-indazol-4-yl]benzamide] | 3.6 nM | 2.2 nM |  | 
O=C(Nc1cccc2c1cnn2-c1ccc(C(F)(F)F)cc1)c1cc(CNS(=O)(=O)C2CC2)ccc1Cl [Example 23, 2-Chloro-5-{[(cyclopropylsulfonyl)amino]methyl}-N-{1-[4-(trifluoromethyl)phenyl]-1H-indazol-4-yl}benzamide] | 1.5 nM | 5.2 nM |  | 
Cc1cc(C)c(Cn2ncc3c(NC(=O)c4cc(CNC(=O)C(C)(C)C)ccc4Cl)cccc32)c(C)c1 [Example 91, 2-Chloro-5-{[(2,2-dimethylpropanoyl)amino]methyl}-N-[1-(2,4,6-trimethylbenzyl)-1H-indazol-4-yl]benzamide] | 5.1 nM | < 1 nM |  | 
O=C(CC1CC1)NCc1ccc(Cl)c(C(=O)Nc2cccc3c2cnn3-c2ccc(C(F)(F)F)cc2)c1 [Example 38, 2-Chloro-5-{[(cyclopropylacetyl)amino]methyl}-N-{1-[4-(trifluoromethyl)phenyl]-1H-indazol-4-yl}benzamide] | 7.5 nM | 5.7 nM |  | 
COCC(=O)NCc1ccc(Cl)c(C(=O)Nc2cccc3c2cnn3-c2ccc(F)cc2)c1 [Example 155, 2-Chloro-N-[1-(4-fluorophenyl)-1H-indazol-4-yl]-5-([(methoxyacetyl)amino]methyl)benzamide] | 5.9 nM |  | 100% | 
COc1cc(-n2ncc3c(NC(=O)c4cc(CNS(=O)(=O)C5CC5)ccc4Cl)cccc32)ccn1 [Example 165, 2-Chloro-5-{[(cyclopropylsulfonyl)amino]methyl}-N-[1-(2-methoxypyridin-4-yl)-1H-indazol-4-yl]benzamide] | 8.6 nM |  | 80% | 96%
O=C(Nc1cccc2c1cnn2-c1ccc(Cl)cc1)c1cc(CNS(=O)(=O)C2CC2)ccc1Cl [Example 150, 2-Chloro-N-[1-(4-chlorophenyl)-1H-indazol-4-yl]-5-([(cyclopropylsulfonyl)amino]methyl)benzamide] | 5.9 nM |  | 72% | 
CC(C)(C)C(=O)NCc1ccc(Cl)c(C(=O)Nc2cccc3c2cnn3C2CCOCC2)c1 [Example 104, 2-Chloro-5-{[(2,2-dimethylpropanoyl)amino]methyl}-N-[1-(tetrahydro-2H-pyran-4-yl)-1H-indazol-4-yl]benzamide] | 80.6 nM | 99.9 nM |  | 
CC(C)(C)C(=O)NCc1ccc(Cl)c(C(=O)Nc2cccc3c2cnn3-c2ccc(OC(F)(F)F)cc2)c1 [Example 51, 2-Chloro-5-{[(2,2-dimethylpropanoyl)amino]methyl}-N-{1-[4-(trifluoromethoxy)phenyl]-1H-indazol-4-yl}benzamide] | 112 nM | 5 nM |  | 
CC(C)(C)C(=O)NCc1ccc(C(F)(F)F)c(C(=O)Nc2cccc3c2cnn3-c2cscn2)c1 [Example 201, 5-{[(2,2-Dimethylpropanoyl)amino]methyl}-N-[1-(1,3-thiazol-4-yl)-1H-indazol-4-yl]-2-(trifluoromethyl)benzamide] | 20.1 nM |  | 85% | 97%
CC(C)(C)C(=O)NCc1ccc(Cl)c(C(=O)Nc2cccc3c2cnn3CCCCc2ccccc2)c1 [Example 108, 2-Chloro-5-{[(2,2-dimethylpropanoyl)amino]methyl}-N-[1-(4-phenylbutyl)-1H-indazol-4-yl]benzamide] | 20.6 nM | 11.1 nM |  | 
Cn1ncc2c(NC(=O)c3cc(CNC(=O)C(C)(C)C)ccc3C(F)(F)F)cccc21 [Example 209, 5-{[(2,2-Dimethylpropanoyl)amino]methyl}-N-(1-methyl-1H-indazol-4-yl)-2-(trifluoromethyl)benzamide] | 38.4 nM |  | 76% | 90%
